From publication PMC3684770 (Free Radical Biology & Medicine, 2013)
Read-outs that look alike come from different tables or passages of the source.

Legend:
[1] = system: 1321N1 astrocyte cell line; assay: 1321N1 oxidative stress assay (serum withdrawal, DCF); details: for Emax: 1321-N1, 24 h, read-out: 1321N1 oxidative stress assay Max reduction; for 1321N1 oxidative stress assay Toxic dose: minimum dose at which toxicity was observed; for 1321N1 oxidative stress assay Max reduction: maximum % inhibition of DCF signal
Description: (§1) Media were then replaced with serum-free, phenol-free media for 5 h.

[2] = system: C6 astrocyte cell line; assay: C6 oxidative stress assay (serum withdrawal, DCF); details: for Emax: 24 h, read-out: C6 oxidative stress assay Max reduction; for IC50: read-out: C6 oxidative stress assay IC50; for C6 oxidative stress assay Toxic dose: minimum dose at which toxicity was observed; for C6 oxidative stress assay Max reduction: maximum % inhibition of DCF signal
Description: as §1

[3] = system: Nrf2-ARE pathway; assay: ARE reporter assay in CHO 4xARE-TK-GFP cells (Spectrum library hits); details: for Toxic dose: lowest dose at which a reduction in GFP fluorescence was observed; for Fold GFP induction: average fold over baseline at the maximal response, CHO cells; for Fold GFP induction / maximal fold induction: 24 h; for maximal fold induction: CHO, read-out: Fold GFP induction
Description: The Z′ score was calculated as follows Z′=1−(3SD^++3SD^−)/(Ave^+–Ave^−) where SD^+ = standard deviation of positive control wells; SD^− = standard deviation of negative control wells; Ave^+ = average fluorescence reading of positive control wells; Ave^− = average fluorescence reading of negative control wells.
Media was removed by hand and replaced (1 compound/well) with the Spectrum library diluted to 10 μM in 0.1% DMSO using a Q-bot liquid handling system (Genetix, New Milton, UK). […] The TK-GFP CHO ARE cell line was screened twice in a single point assay and the control TK-GFP CHO cell line was screened once to eliminate false positives.
The compounds were applied in triplicate to confluent cells in 96 well plates in serum free medium for 24 hours and the induction of GFP measured in a fluorescence plate reader.
In order to screen the Spectrum collection of 2000 molecules the reporter assay was optimised in […]. To assess the suitability of the assay for library screening, a Z’ score calculation was performed by treating alternate wells with vehicle (0.1% DMSO) and 10 µM Ebselen as a positive control (see calculation in Methods). […] The library was subsequently screened at a single point concentration of 10µM for every compound. Drug library dilutions and plating were performed with a Q-BOT liquid handling system and both the 4xARE-TK-GFP reporter cell line and TK-GFP control cell line were tested for their response to the compounds. Hits were identified as having data points more than three standard deviations above the background level, which was the average value of 24 wells treated with vehicle (0.1% DMSO) only. Hit compounds were checked to see if they generated a response in the control cell line, for example by non-specific activation of transcription or autofluorescence. […] The library screen was repeated once in the 4xARE –TK-CHO cell line and compounds classed as hits in both screens were taken forward for further assessment.

[4] = system: NSC34 cells; assay: NSC34 oxidative stress assay (serum withdrawal, DCF); details: for Emax: NSC-34, 24 h, read-out: NSC34 oxidative stress assay Max reduction; for NSC34 oxidative stress assay Toxic dose: minimum dose at which toxicity was observed; for NSC34 oxidative stress assay Max reduction: maximum % inhibition of DCF signal, negative = prooxidant
Description: as §1

[5] = Homo sapiens, 1321-N1, read-out: 1321N1 oxidative stress assay IC50
[6] = 24-h preconditioning, 6-h serum withdrawal, DCF fluorescence
[7] = CHO ARE reporter, 7-point concentration response

Row | Compound | Emax ([1]; Homo sapiens) | 1321N1 oxidative stress assay Toxic dose [1] | Emax ([2]; Rattus norvegicus, Astrocyte) | IC50 ([2]; Rattus norvegicus, Astrocyte) | C6 oxidative stress assay Toxic dose [2] | EC50 ([3]; Cricetulus griseus) | Toxic dose [3] | Emax ([4]; Mus musculus) | IC50 ([4]; Mus musculus, NSC-34, read-out: NSC34 oxidative stress assay IC50) | NSC34 oxidative stress assay Toxic dose [4] | IC50 [1, 5] | Fold GFP induction [3] | maximal fold induction ([3]; Cricetulus griseus) | 1321N1 oxidative stress assay Max reduction [1] | C6 oxidative stress assay Max reduction [2] | IC50 [2, 6] | EC50 [3, 7] | NSC34 oxidative stress assay Max reduction [4] | IC50 ([1]; read-out: 1321N1 oxidative stress assay IC50, 24-h preconditioning, 6-h serum withdrawal, DCF fluorescence)
1 | COc1cc(O)c(C)c(O)c1 [2,6-Dihydroxy-4-methoxytoluene] | 40% | None | 16% | 5.29 µM | 10 µM | 45 µM | 100 µM | 28% | ~3.26 µM | None | – | – | – | – | – | – | – | – | –
2 | C=C(C)/C=C1/C=CC(=O)C(C)=C1 [Retusoquinone] | 0% | none | 15% | 2.06 µM | none | – | 100 µM | -25% | – | none | – | – | – | – | – | – | – | – | –
3 | CC1(C)C2CC(=O)O[C@@]3(C)C4=CC(=O)O[C@@H](c5ccoc5)[C@]4(C)CCC3[C@@]2(C)C=C[C@H]1O (stereo partly drawn) [Deoxyandirobin lactone] | 65% | None | 38% | 2.87 µM | None | 11.1 µM | 100 µM | 0% | – | None | 1.64 µM | – | – | – | – | – | – | – | –
4 | CC1(C)C(=O)C=C[C@]2(C)[C@H]3CC[C@@]4(C)[C@H](c5ccoc5)OC(=O)[C@H]5O[C@]54[C@]3(C)[C@H](O)C[C@@H]12 [Deacetylgedunin] | 28% | 10 µM | 70% | 5.36 µM | None | 3.5 µM | 30 µM | 0% | – | None | 2.37 µM | 3.05 fold | – | – | – | – | – | – | –
5 | CCc1cccc(CC)c1N(COC)C(=O)CCl [Alachlor] | 83% | none | 62% | 6.22 µM | – | 3.29 µM | – | 0% | – | – | 1.97 µM | – | – | – | – | – | – | – | –
6 | C=CC(C1=CC(=O)C(OC)=CC1=O)c1ccccc1 (stereo not drawn) [4-Methoxydalbergione] | 43% | none | 14% | 2.5 µM | none | – | 100 µM | -44% | – | none | – | – | 2.11 | – | – | – | – | – | –
7 | COC(=O)[C@H](O)[C@H]1C(C)(C)[C@H](OC(C)=O)[C@@H]2CC3=C4CC(=O)O[C@@H](c5ccoc5)[C@]4(C)CC[C@@H]3[C@@]1(C)C2=O [Swietenolide 3 acetate] | 60% | none | 50% | 4.22 µM | none | 3.5 µM | 100 µM | 0% | – | 0.3 µM | – | – | 2.82 | – | – | – | – | – | –
8 | COc1cc(O)cc(OC)c1OC [Antiarol] | 35% | none | 23% | 3.05 µM | 10 µM | – | 100 µM | -50% | – | 10 µM | – | – | – | – | – | – | – | – | –
9 | CC1=C2C(=CO[C@H](C)[C@H]2C)C(O)=C(C(=O)O)C1=O [Citrinin] | 28% | none | 23% | 20 µM | none | 4.1 µM | 30 µM | 0% | – | none | 0.338 µM | 3.26 fold | – | – | – | – | – | – | –
10 | Cc1cc(O)c(C)c(O)c1C(=O)O [3-Methylorsellinic acid] | 53% | none | 56% | 3.1 µM | none | 9.59 µM | 100 µM | -12% | – | 0.3 µM | 3.26 µM | – | – | – | – | – | – | – | –
11 | COc1ccc2c(c1)OC/C(=C/c1ccc(OC)c(OC)c1)C2=O [Sappanone A trimethyl ether] | 40% | none | 27% | – | none | 3.5 µM | 100 µM | -60% | – | none | 0.279 µM | – | 1.99 | – | – | – | – | – | –
12 | COc1cccc(O)c1O [3-Methoxycatechol] | 39% | none | 46% | 1.2 µM | 10 µM | 15.4 µM | 100 µM | -13% | – | 0.3 µM | – | – | – | – | – | – | – | – | –
13 | O=C(CC[N+](=O)[O-])OC[C@H]1O[C@@H](O)[C@H](OC(=O)CC[N+](=O)[O-])[C@@H](OC(=O)CC[N+](=O)[O-])[C@@H]1OC(=O)CC[N+](=O)[O-] [Endecaphyllin X] | – | none | – | – | none | – | None | – | – | 10 µM | – | 2.15 fold | – | 56% | 40% | 3.15 µM | 18.8 µM | 0% | –
14 | 3β Hydroxydeoxydesacetoxy-7-oxogedunin | – | None | – | – | None | – | 30 µM | – | – | 3 µM | – | 2.55 fold | – | 62% | 67% | 3.07 µM | 8.71 µM | 0% | 3.96 µM
15 | ClC1=C(Cl)C2(Cl)C3C(Cl)C(Cl)CC3C1(Cl)C2(Cl)Cl (stereo not drawn) [Chlordane] | 68% | none | 20% | 3.57 µM | none | 9.18 µM | 100 µM | 0% | – | 3 µM | – | 1.56 fold | – | – | – | – | – | – | –
